Assay results: US11040981B2, “Pyrrolotriazine compounds and methods of inhibiting TAM kinases” (Syros Pharmaceuticals, Inc., priority 2017, dated 2021)
pIC50: −log10 of the molar value.

Key:
[1] = molecular target: T1, MERTK (Homo sapiens, UniProt Q12866); assay: TR-FRET kinase activity assay, MERTK; type: biochemical; details: for pIC50: TR-FRET activity assay, ATP at Km, 60 minutes, read-out: Mer IC50; for FLT3/Mer ratio (FLT3 IC50/Mer IC50): ratio of Mer to FLT3: FLT3 IC50/Mer IC50
T1 sequence (Q12866 21-999): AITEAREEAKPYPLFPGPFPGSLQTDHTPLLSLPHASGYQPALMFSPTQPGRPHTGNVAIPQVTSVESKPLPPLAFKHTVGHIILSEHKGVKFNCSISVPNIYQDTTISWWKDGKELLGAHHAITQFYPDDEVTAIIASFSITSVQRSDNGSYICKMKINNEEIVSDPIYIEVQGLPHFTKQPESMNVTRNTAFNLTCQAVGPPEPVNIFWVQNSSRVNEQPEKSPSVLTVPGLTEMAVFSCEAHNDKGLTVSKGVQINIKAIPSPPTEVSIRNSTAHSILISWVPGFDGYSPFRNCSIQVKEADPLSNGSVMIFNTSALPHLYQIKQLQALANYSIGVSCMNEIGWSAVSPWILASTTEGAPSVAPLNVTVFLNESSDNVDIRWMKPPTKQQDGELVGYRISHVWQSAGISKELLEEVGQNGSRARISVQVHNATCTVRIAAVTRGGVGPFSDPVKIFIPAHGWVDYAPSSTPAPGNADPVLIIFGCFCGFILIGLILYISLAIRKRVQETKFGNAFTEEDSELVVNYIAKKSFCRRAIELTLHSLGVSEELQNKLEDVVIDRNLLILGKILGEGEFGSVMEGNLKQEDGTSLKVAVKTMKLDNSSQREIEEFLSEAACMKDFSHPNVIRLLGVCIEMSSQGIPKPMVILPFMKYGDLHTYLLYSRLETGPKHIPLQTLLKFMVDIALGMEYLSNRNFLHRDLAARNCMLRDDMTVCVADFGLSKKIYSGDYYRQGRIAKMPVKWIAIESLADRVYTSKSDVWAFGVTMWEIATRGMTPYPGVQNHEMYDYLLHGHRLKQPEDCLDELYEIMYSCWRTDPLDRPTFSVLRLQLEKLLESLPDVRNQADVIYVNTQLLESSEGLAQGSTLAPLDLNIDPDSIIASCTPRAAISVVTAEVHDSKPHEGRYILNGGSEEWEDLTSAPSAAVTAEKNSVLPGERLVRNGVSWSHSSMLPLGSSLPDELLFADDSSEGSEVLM
Procedure, shortened: (§1)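 Recombinant human kinases, fluorescent peptide substrate, ATP at Km; 1 h RT, pH 7.5. EDTA-quenched, Eu antibody added, TR-FRET read; IC50 determined.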

[2] = molecular target: T2, TYRO3 (Homo sapiens, UniProt Q06418); assay: TR-FRET kinase activity assay, TYRO3; type: biochemical; details: ATP at Km, 60 minutes
T2 sequence (Q06418 41-890): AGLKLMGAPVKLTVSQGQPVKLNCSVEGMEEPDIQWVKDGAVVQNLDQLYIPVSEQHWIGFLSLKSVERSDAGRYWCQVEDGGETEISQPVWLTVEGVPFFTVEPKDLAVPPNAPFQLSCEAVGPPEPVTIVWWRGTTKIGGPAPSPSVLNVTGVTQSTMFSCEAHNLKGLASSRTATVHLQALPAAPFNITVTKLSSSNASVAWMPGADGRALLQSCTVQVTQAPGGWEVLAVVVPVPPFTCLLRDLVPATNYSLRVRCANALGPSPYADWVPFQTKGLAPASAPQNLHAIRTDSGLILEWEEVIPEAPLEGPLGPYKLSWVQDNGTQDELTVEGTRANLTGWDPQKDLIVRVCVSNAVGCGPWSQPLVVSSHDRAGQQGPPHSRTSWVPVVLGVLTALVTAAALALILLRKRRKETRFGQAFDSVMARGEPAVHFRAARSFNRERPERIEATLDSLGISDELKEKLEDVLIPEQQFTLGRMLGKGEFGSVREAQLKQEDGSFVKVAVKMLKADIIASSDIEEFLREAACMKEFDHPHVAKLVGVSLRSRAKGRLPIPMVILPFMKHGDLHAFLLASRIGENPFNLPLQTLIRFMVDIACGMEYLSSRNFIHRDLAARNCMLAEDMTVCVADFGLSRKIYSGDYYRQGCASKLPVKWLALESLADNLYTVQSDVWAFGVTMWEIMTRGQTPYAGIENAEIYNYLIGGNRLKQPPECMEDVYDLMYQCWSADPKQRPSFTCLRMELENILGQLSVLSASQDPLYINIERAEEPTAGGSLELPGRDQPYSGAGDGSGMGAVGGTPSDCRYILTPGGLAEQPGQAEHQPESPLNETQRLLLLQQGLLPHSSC
Procedure, shortened: as §1

Row | Compound | pIC50 [1] | FLT3/Mer ratio (FLT3 IC50/Mer IC50) [1] | pIC50 [2]
1 | COC[C@H](C)Nc1ncc2c(-c3ccc(CN4CCOCC4)cc3)cc([C@H]3CC[C@H](NC(C)=O)CC3)n2n1 [Compound 300, N-((trans)-4-(2-(((S)-1-methoxypropan-2-yl)amino)-5-(4-(morpholinomethyl)phenyl)pyrrolo[2,1-f][1,2,4]triazin-7-yl)cyclohexyl)acetamide] | ≥ 7.00 | +++ (“+++” represents a ratio of >100) | ≥ 7.00
2 | CNc1c(N[C@H]2CC[C@H](c3cc(-c4ccc(CN5CCOCC5)cc4)c4cnc(N[C@@H](C)COC)nn43)CC2)c(=O)c1=O [Compound 316, 3-(((trans)-4-(2-(((S)-1-methoxypropan-2-yl)amino)-5-(4-(morpholinomethyl)phenyl)pyrrolo[2,1-f][1,2,4]triazin-7-yl)cyclohexyl)amino)-4-(methylamino)cyclobut-3-ene-1,2-dione] | ≥ 7.00 | ++ (“++” represents a ratio of between 10 and 100) | ≥ 7.00
3 | COC[C@H](C)Nc1ncc2c(-c3ccnc(OC4CCN(C)CC4)c3)cc([C@H]3CC[C@H](O)CC3)n2n1 [Compound 342] | ≥ 7.00 | +++ (“+++” represents a ratio of >100) | ≥ 7.00
4 | COC[C@H](C)Nc1ncc2c(-c3cnn(Cc4nc(C)no4)c3)cc([C@H]3CC[C@H](O)CC3)n2n1 [Compound 292] | ≥ 7.00 | +++ (“+++” represents a ratio of >100) | ≥ 7.00
5 | CNS(=O)(=O)c1ccc(-c2cc([C@H]3CC[C@H](O)CC3)n3nc(N[C@@H](C)COC)ncc23)cn1 [Compound 336] | ≥ 7.00 | +++ (“+++” represents a ratio of >100) | ≥ 7.00
6 | COC[C@H](C)Nc1ncc2c(-c3cnn(C4CN(CC(F)(F)F)C4)c3)cc([C@H]3CC[C@H](O)CC3)n2n1 [Compound 302] | ≥ 7.00 | +++ (“+++” represents a ratio of >100) | ≥ 7.00
7 | COC[C@H](C)Nc1ncc2c(-c3cnn(CCS(C)(=O)=O)c3)cc([C@H]3CC[C@H](O)CC3)n2n1 [Compound 280] | ≥ 7.00 | +++ (“+++” represents a ratio of >100) | ≥ 7.00
8 | C[C@@H](CC(F)(F)F)Nc1ncc2c(-c3cnn([C@H]4CCOC4)c3)cc([C@H]3CC[C@H](O)CC3)n2n1 [Compound 290] | ≥ 7.00 | ++ (“++” represents a ratio of between 10 and 100) | ≥ 7.00
9 | COC[C@H](C)Nc1ncc2c(-c3cnn(C(C)(C)C(=O)C4C[C@H]5COC[C@H]5C4)c3)cc([C@H]3CC[C@H](O)CC3)n2n1 (stereo partly drawn) [Compound 319] | ≥ 7.00 | +++ (“+++” represents a ratio of >100) | ≥ 7.00
10 | COC[C@H](C)Nc1ncc2c(-c3cnn(C4CN(C(C)=O)C4)c3)cc([C@H]3CC[C@H](O)CC3)n2n1 [Compound 286] | ≥ 7.00 | +++ (“+++” represents a ratio of >100) | ≥ 7.00
11 | CC(CC(F)(F)F)Nc1ncc2c(-c3cnc(C(=O)O)nc3)cc(C3CCC(O)CC3)n2n1 (stereo not drawn) [Compound 299] | ≥ 7.00 | +++ (“+++” represents a ratio of >100) | ≥ 7.00
12 | COC[C@H](C)Nc1ncc2c(-c3cnn([C@@H]4CCNC4=O)c3)cc([C@H]3CC[C@H](O)CC3)n2n1 [Compound 315] | ≥ 7.00 | +++ (“+++” represents a ratio of >100) | ≥ 7.00
13 | CC(CC(F)(F)F)Nc1ncc2c(-c3cncc(S(C)(=O)=O)c3)cc(C3CCC(O)CC3)n2n1 (stereo not drawn) [Compound 273] | ≥ 7.00 | +++ (“+++” represents a ratio of >100) | ≥ 7.00
14 | COC[C@H](C)Nc1ncc2c(-c3cnn(C(C)(C)C(=O)N4CCC5(COC5)C4)c3)cc([C@H]3CC[C@H](O)CC3)n2n1 [Compound 318] | ≥ 7.00 | +++ (“+++” represents a ratio of >100) | ≥ 7.00
15 | Cc1cc(-c2cc([C@H]3CC[C@H](O)CC3)n3nc(N[C@@H](C)COC(F)F)ncc23)ccn1 [Compound 313] | ≥ 7.00 | +++ (“+++” represents a ratio of >100) | ≥ 7.00
16 | CNC(=O)C(C)(C)n1cc(-c2cc([C@H]3CC[C@H](O)CC3)n3nc(N[C@@H](C)COC)ncc23)cn1 [Compound 295] | ≥ 7.00 | +++ (“+++” represents a ratio of >100) | ≥ 7.00
17 | COC[C@H](C)Nc1ncc2c(-c3cnn(Cc4cnc(C)cn4)c3)cc([C@H]3CC[C@H](O)CC3)n2n1 [Compound 306] | ≥ 7.00 | +++ (“+++” represents a ratio of >100) | ≥ 7.00
18 | COC[C@H](C)Nc1ncc2c(-c3ccnc(N4CCN(C(C)=O)CC4)c3)cc([C@H]3CC[C@H](O)CC3)n2n1 [Compound 344] | ≥ 7.00 | +++ (“+++” represents a ratio of >100) | ≥ 7.00
19 | C[C@@H](CC(F)(F)F)Nc1ncc2c(-c3ccc(S(C)(=O)=O)nc3)cc([C@H]3CC[C@H](O)CC3)n2n1 [Compound 297] | ≥ 7.00 | ++ (“++” represents a ratio of between 10 and 100) | ≥ 7.00
20 | COC[C@H](C)Nc1ncc2c(-c3cnn(C4CN(C(=O)C5COC5)C4)c3)cc([C@H]3CC[C@H](O)CC3)n2n1 [Compound 293] | ≥ 7.00 | +++ (“+++” represents a ratio of >100) | ≥ 7.00
21 | COC[C@H](C)Nc1ncc2c(-c3ccnc(OC(C)C)c3)cc([C@H]3CC[C@H](O)CC3)n2n1 [Compound 343] | ≥ 7.00 | +++ (“+++” represents a ratio of >100) | ≥ 7.00
22 | COCCOc1cc(-c2cc([C@H]3CC[C@H](O)CC3)n3nc(N[C@@H](C)COC)ncc23)ccn1 [Compound 345] | ≥ 7.00 | +++ (“+++” represents a ratio of >100) | ≥ 7.00
23 | COC[C@H](C)Nc1ncc2c(-c3cnn(Cc4noc(C)n4)c3)cc([C@H]3CC[C@H](O)CC3)n2n1 [Compound 285] | ≥ 7.00 | +++ (“+++” represents a ratio of >100) | ≥ 7.00
24 | C[C@@H](CC(F)(F)F)Nc1ncc2c(-c3cncc(C(=O)N4CCOCC4)c3)cc([C@H]3CC[C@H](O)CC3)n2n1 [Compound 311] | ≥ 7.00 | +++ (“+++” represents a ratio of >100) | ≥ 7.00
25 | COC[C@H](C)Nc1ncc2c(-c3cnn(C(C)(C)C(=O)N4CCC4)c3)cc([C@H]3CC[C@H](O)CC3)n2n1 [Compound 283] | ≥ 7.00 | +++ (“+++” represents a ratio of >100) | ≥ 7.00
26 | COC[C@H](C)Nc1ncc2c(-c3cnn(Cc4cn[nH]c4)c3)cc([C@H]3CC[C@H](O)CC3)n2n1 [Compound 332] | ≥ 7.00 | +++ (“+++” represents a ratio of >100) | ≥ 7.00
